Measurements reported in US10143638B2, “Method of treating skin with ingenol mebutate” (LEO Laboratories Limited, priority 2009, dated 2018).

Key:
[1] = Stability of PEP005/DMSO stock solution; type: physicochemical; details: 10 mg/ml in DMSO, stored at 4° C.
Procedure: PEP005, obtained from Peplin in 20 mg batches, was stored at 4° C. When required, the PEP005 was solubilized in dimethyl sulphoxide (DMSO, >99.9%, Sigma Chemical Company, Dorset, U.K.), at a concentration of 10 mg/ml. […] Prior to use, the PEP005/DMSO stock solution was removed from 4° C. storage and warmed to room temperature. The required volumes of PEP005/DMSO were aliquoted into a poly-propylene vessel and the PEP005/DMSO diluted to the required concentration (typically 0.01 μg/ml, 0.1 μg/ml, 1 μg/ml, 10 μg/ml and 100 μg/ml) in Fibroblast-Serum Containing Medium (for dermal fibroblast cultures, Section 3.1), with fresh PEP005/culture medium solutions being prepared daily, at the various concentrations above, due to solution stability. Prior to discarding PEP005/culture medium solutions, at least two volumes of 0.1% sodium hydroxide (Sigma Chemical Company), in 95% ethanol/5% methanol (both from Thermo Fisher Scientific, Leicestershire, U.K.), was added to each solution, to deactivate.

dermal fibroblasts = assay: De novo hyaluronan molecular weight ([3H]-glucosamine incorporation, gel filtration); type: cell-based, human; details: PEP005 0.01-10 μg/ml, presence or absence of TGF-β1, day 1 and day 3
Procedure: Hyaluronan molecular weight sizing, following dermal fibroblast synthesis, was performed as previously described (Meran et al, 2008; Simpson et al, 2009). Dermal fibroblasts were seeded in 6-well tissue culture plates, in PEP005-free, Fibroblast-Serum Containing Medium (2 ml), at 1.5×10^5 cells/well. Dermal fibroblasts were maintained at 37° C., in a 5% CO2/95% air atmosphere, for 48 h, prior to washing in phosphate buffered saline (PBS, 2×2 ml) and maintenance in serum-free, Fibroblast-Serum Containing Medium (2 ml), for a further 48 h. At 48 h, the serum-free, Fibroblast-Serum Containing Medium was replenished with serum-free, Fibroblast-Serum Containing Medium (2 ml), containing 0 μg/ml, 0.01 μg/ml, 0.1 μg/ml, 1 μg/ml, 10 μg/ml or 100 μg/ml PEP005, +/−TGF-β1 (10 ng/ml) (three culture wells per PEP005 concentration), in addition to [^3H]-glucosamine (20 μCi/ml, G.E. Healthcare). The dermal fibroblasts were maintained at 37° C., in a 5% CO2/95% air atmosphere, for 24 h or 72 h. […]
Aliquots (20 μl×3) of each Extract fraction were transferred into scintillation vials, followed by the addition of 70% ethanol (600 μl) and liquid scintillant (4 ml). Scintillation vials were vortexed and [^3H]-incorporation quantified using a Packard Tri-Carb 1900CA Liquid Scintillation Analyzer (Perkin Elmer), with values obtained being expressed as disintegrations per minute (dpm). […]

Structure (SMILES): C/C=C(/C)C(=O)O[C@H]1C(C)=C[C@]23C(=O)[C@@H](C=C(CO)[C@@H](O)[C@]12O)[C@H]1[C@@H](C[C@H]3C)C1(C)C [PEP005, ingenol-3-angelate]
- stability of PEP005/DMSO stock solution [1]: stable for several months
- molecular weight of hyaluronan synthesized (dermal fibroblasts): predominantly of high (>1.5×10^6 Da) and medium (<1.5×10^6-4×10^5 Da) molecular weight
